Values of other authors, collected in US5665721A, “Heterocyclic substituted cyclopentane compounds” (Abbott Laboratories, priority 1995, dated 1997).

Test system: adenosine kinase
Settings: literature; cited from earlier work

Row | Structure (SMILES) | reported to inhibit adenosine kinase (in words)
1 | C[C@H]1O[C@@H](n2cc(I)c3c(N)ncnc32)[C@H](O)[C@@H]1O [5'-deoxy-5-iodotubercidin] | most potent
2 | Nc1ncnc2c1c(I)cn2[C@@H]1O[C@H](CO)[C@@H](O)[C@H]1O [5-iodotubercidin] | most potent
